# Results from US8383853B2, “Method for preparing 2,6-diethyl-4-methylphenylacetic acid” (Bayer Cropscience AG, priority 2004, dated 2013).
# Columns and labels:
# Format in all cases: in vivo
# Summer wheat = assay: Container trials with cereal, post-emergence, without or with safener; conditions: crop damage, 28 days after application
# Method: (§1) Seeds of monocotyledonous and dicotyledonous weed and crop plants are placed into sandy loam in wood fiber pots or in plastic pots, covered with soil and cultivated in a greenhouse, during the vegetation period also outdoors outside of the greenhouse, under good growth conditions. Two-three weeks after sowing, the test plants are treated at the one- to three-leaf stage. The test compounds, formulated as wettable powders (WP) or liquid (EC) are, in various dosages with a water application rate of […] (converted), with wetting agent (0.2 to 0.3%) added, sprayed onto the plants and the surface of the soil. Three-four weeks after the treatment of the test plants, the effect of the preparations is rated visually in comparison to untreated controls (herbicidal effect in percent (%): 100% effect=the plants have died, 0% effect=like control plants).
# (§2) If it is additionally to be tested as to whether safeners can improve the plant compatibility of test substances in the case of crop plants, the following options are used for applying the safener: • seeds of the crop plants are, before sowing, dressed with the safener substance (the amount of safener stated in percent, based on the weight of the seed) • before the application of the test substances, the crop plants are sprayed with the safener at a certain application rate per hectare (usually 1 day before the application of the test substances) • the safener is applied together with the test substance as a tank mix (the amount of safener is stated in g/ha or as a ratio, based on the herbicide).
# (§3) By comparing the effect of the test substances on crop plants without or with safener treatment, it is possible to assess the effect of the safener substance.
# Summer barley = assay: as above; conditions: crop damage
# Method: as §1, §2, §3
# Meloidogyne incognita = assay: Meloidogyne test (spray treatment); conditions: 20 ppm of a.i., after 14 d
# Method: To produce a suitable preparation of active compound, 1 part by weight of active compound is mixed with the stated amounts of solvent, and the concentrate is diluted with water to the desired concentration.
# Vessels are filled with sand, solution of active compound, Meloidogyne incognita egg/larva suspension and lettuce seeds. The lettuce seeds germinate and the plants develop. On the roots, galls are formed.
# After the desired period of time, the nematicidal activity is determined in % by the formation of galls. 100% means that no galls have been found; 0% means that the number of galls on the treated plants corresponds to that of the untreated control.
# Alopecurus [1] = assay: Herbicidal pre-emergence action; conditions: greenhouse
# Source text: (§4) Seeds of monocotyledonous and dicotyledonous weed and crop plants are placed in sandy loam in wood fiber pots and covered with soil. The test compounds, formulated in the form of wettable powders (WP), are then, as an aqueous suspension with a water application rate of 600 l/ha (converted), with 0.2% of wetting agent added, applied to the surface of the covering soil in various dosages.
# (§5) After the treatment, the pots are placed in a greenhouse and kept under good growth conditions for the test plants. The visual assessment of the emergence damage on the test plants is carried out after a trial period of 3 weeks by comparison with untreated controls (herbicidal effect in percent (%): 100% effect=the plants have died, 0% effect=like control plants).
# Lolium multiflorum [2] = assay: Herbicidal pre-emergence action; conditions: greenhouse
# Source text: as §4, §5
# Veronica [3] = assay: Herbicidal pre-emergence action; conditions: greenhouse, 320 g of a.i./ha
# Source text: as §4, §5
# Setaria viridis [4] = assay: Herbicidal pre-emergence action; conditions: greenhouse
# Source text: as §4, §5
# Avena fatua [5] = assay: Herbicidal pre-emergence action; conditions: greenhouse
# Source text: as §4, §5
# Alopecurus [6] = assay: Herbicidal post-emergence action; conditions: greenhouse, 80 g of a.i./ha
# Method: (§6) Seeds of monocotyledonous and dicotyledonous weed and crop plants are placed into sandy loam in wood fiber pots, covered with soil and cultivated in a greenhouse under good growth conditions. Two-three weeks after sowing, the test plants are treated at the one-leaf stage. The test compounds, formulated as wettable powders (WP), are then, in various dosages with a water application rate of 600 l/ha (converted), with 0.2% of wetting agent added, sprayed onto the green parts of the plants. After the test plants have been kept in the greenhouse under optimum growth conditions for about 3 weeks, the effect of the preparations is rated visually in comparison to untreated controls (herbicidal effect in percent (%): 100% effect=the plants have died, 0% effect=like control plants).
# Lolium multiflorum [7] = assay: Herbicidal post-emergence action; conditions: greenhouse, 80 g of a.i./ha
# Method: as §6
# Veronica [8] = assay: Herbicidal post-emergence action; conditions: greenhouse, 80 g of a.i./ha
# Method: as §6
# Setaria viridis [9] = assay: Herbicidal post-emergence action; conditions: greenhouse, 80 g of a.i./ha
# Method: as §6
# Avena fatua [10] = assay: Herbicidal post-emergence action; conditions: greenhouse, 80 g of a.i./ha
# Method: as §6
# Echinochloa = assay: Herbicidal pre-emergence action; conditions: greenhouse, 80 g of a.i./ha
# Source text: as §4, §5
# Echinochloa crus-galli = assay: Herbicidal post-emergence action; conditions: greenhouse, 80 g of a.i./ha
# Method: as §6
# [11] = greenhouse, post-emergence, 12.5 g of a.i./ha
# [12] = greenhouse, post-emergence, 25 g of a.i./ha
smiles,measurement,setting,value
"CCOC1CCC2(CC1)NC(=O)C(c1c(CC)cc(C)cc1CC)=C2O (single isomer, unassigned) [I-a-2]",Summer wheat observed (%),Summer wheat; 12.5 g of a.i./ha,40%
same,Summer wheat observed (%),Summer wheat; 25 g of a.i./ha,80%
same,Summer barley observed (%),"Summer barley; 28 days after application, 25 g of a.i./ha",25%
same,Summer barley observed (%),"Summer barley; 28 days after application, 50 g of a.i./ha",50%
"CCOCC(=O)OC1=C(c2c(CC)cc(C)cc2CC)C(=O)NC12CCC(OC)CC2 (single isomer, unassigned) [I-b-2]",nematicidal activity in % by the formation of galls,Meloidogyne incognita,≥ 70%
same,Summer wheat observed (%),Summer wheat; 12.5 g of a.i./ha,95%
same,"herbicidal effect, Alopecurus",Alopecurus [1]; 320 g of a.i./ha,100%
same,"herbicidal effect, Lolium",Lolium multiflorum [2]; 320 g of a.i./ha,100%
same,"herbicidal effect, Veronica",Veronica [3],100%
same,"herbicidal effect, Setaria",Setaria viridis [4]; 320 g of a.i./ha,100%
same,"herbicidal effect, Avena fatua",Avena fatua [5]; 320 g of a.i./ha,90%
same,"herbicidal effect, Alopecurus",Alopecurus [6],100%
same,"herbicidal effect, Lolium",Lolium multiflorum [7],100%
same,"herbicidal effect, Veronica",Veronica [8],70%
same,"herbicidal effect, Setaria",Setaria viridis [9],100%
same,"herbicidal effect, Avena fatua",Avena fatua [10],100%
"CCOC(=O)OC1=C(c2c(CC)cc(C)cc2CC)C(=O)NC12CCC(OC)CC2 (single isomer, unassigned) [I-c-2]","herbicidal effect, Alopecurus",Alopecurus [1]; 80 g of a.i./ha,90%
same,"herbicidal effect, Lolium",Lolium multiflorum [2]; 80 g of a.i./ha,100%
same,"herbicidal effect, Echinochloa",Echinochloa,100%
same,"herbicidal effect, Setaria",Setaria viridis [4]; 80 g of a.i./ha,90%
same,"herbicidal effect, Alopecurus",Alopecurus [6],100%
same,"herbicidal effect, Lolium",Lolium multiflorum [7],100%
same,"herbicidal effect, Veronica",Veronica [8],80%
same,"herbicidal effect, Echinochloa",Echinochloa crus-galli,100%
same,"herbicidal effect, Setaria",Setaria viridis [9],100%
CCc1cc(C)cc(CC)c1C1=C(O)C2(CCC(OC)CC2)NC1=O (stereo not shown) [I-a-1],Summer barley observed (%),Summer barley; [11],20%
same,Summer barley observed (%),Summer barley; [12],60%
same,Summer barley observed (%),"Summer barley; greenhouse, post-emergence, 50 g of a.i./ha",93%
CCc1cc(C)cc(CC)c1C1=C(OC(=O)COC)C2(CCC(OC)CC2)NC1=O (stereo not shown) [I-b-1],Summer wheat observed (%),Summer wheat; 25 g of a.i./ha,90%
same,"herbicidal effect, Alopecurus",Alopecurus [6],100%
same,"herbicidal effect, Lolium",Lolium multiflorum [7],100%
same,"herbicidal effect, Veronica",Veronica [8],80%
same,"herbicidal effect, Setaria",Setaria viridis [9],100%
same,"herbicidal effect, Avena fatua",Avena fatua [10],100%
C=CCOC(=O)OC1=C(c2c(CC)cc(C)cc2CC)C(=O)NC12CCC(OC)CC2 (stereo not shown) [I-c-1],Summer barley observed (%),Summer barley; [11],35%
same,Summer barley observed (%),Summer barley; [12],60%
same,"herbicidal effect, Alopecurus",Alopecurus [1]; 80 g of a.i./ha,100%
same,"herbicidal effect, Lolium",Lolium multiflorum [2]; 80 g of a.i./ha,100%
same,"herbicidal effect, Echinochloa",Echinochloa,100%
same,"herbicidal effect, Setaria",Setaria viridis [4]; 80 g of a.i./ha,100%
same,"herbicidal effect, Avena fatua",Avena fatua [5]; 80 g of a.i./ha,60%
same,"herbicidal effect, Alopecurus",Alopecurus [6],100%
same,"herbicidal effect, Lolium",Lolium multiflorum [7],100%
same,"herbicidal effect, Echinochloa",Echinochloa crus-galli,100%
same,"herbicidal effect, Setaria",Setaria viridis [9],100%
same,"herbicidal effect, Avena fatua",Avena fatua [10],90%
